The record followed here is ChEMBL document CHEMBL2203126, “Diazine indole acetic acids as potent, selective, and orally bioavailable antagonists of chemoattractant receptor homologous molecule expressed on Th2 cells (CRTH2) for the treatment of allergic inflammatory diseases” (J Med Chem, 2012).

≈ marks a conversion by molar mass, not a printed value.

For data set [1], the target named is T1, Prostaglandin D2 receptor 2 (Homo sapiens, UniProt Q9Y5Y4).
T1 sequence (Q9Y5Y4 whole entry): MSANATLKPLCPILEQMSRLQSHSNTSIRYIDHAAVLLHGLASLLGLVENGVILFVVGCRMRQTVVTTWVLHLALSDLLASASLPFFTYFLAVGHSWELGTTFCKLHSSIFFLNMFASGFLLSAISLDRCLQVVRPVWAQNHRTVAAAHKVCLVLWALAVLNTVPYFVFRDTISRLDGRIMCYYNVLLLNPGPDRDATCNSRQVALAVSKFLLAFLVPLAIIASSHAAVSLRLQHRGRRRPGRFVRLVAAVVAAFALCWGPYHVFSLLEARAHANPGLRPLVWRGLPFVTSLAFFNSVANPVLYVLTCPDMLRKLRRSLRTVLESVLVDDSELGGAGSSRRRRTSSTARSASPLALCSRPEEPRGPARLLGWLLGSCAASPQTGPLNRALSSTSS
In words: biochemical.
Description: (§1) Displacement of [3H]PGD2 from recombinant human CRTH2 receptor expressed in CHO-K1 cells after 30 min by FRET method

Data set [2] can be described thus: Dissociation constant, pKa of the compound. Format: physicochemical.
A short description of data set [3]: Cmax in mouse at 10 mg/kg, po. Format: ADME, organism-based. The arrangement: dose 10 mg/kg, route oral. The note with it: in vivo.
Data set [4] in a line: in vitro. The settings on record: human, plasma.
Description: Plasma protein binding in human
The nature of data set [5]: Clearance in mouse plasma at 2 mg/kg, iv. Format: ADME, organism-based. The arrangement: dose 2 mg/kg, route intravenous.
Another data set has as its system Eosinophil. Put plainly: cells. The note with it: Homo sapiens, Blood, 10 min.
The nature of data set [6]: Half life in mouse at 2 mg/kg, iv. The class given is ADME, organism-based. The arrangement: dose 2 mg/kg, route intravenous. The settings on record: in vivo.
Data set [7] is described as follows: Oral bioavailability in mouse at 10 mg/kg. Format: ADME, organism-based. The note with it: in vivo.
The next data set in a line: physchem. The settings on record: buffer, pH 6.6.
Data set [8] in a line: Volume of distribution at steady state in mouse at 2 mg/kg, iv. The class given is ADME, organism-based. The arrangement: dose 2 mg/kg, route intravenous. The settings on record: in vivo, read-out: Vdss.
Data set [9] is described as follows: in vitro. The settings on record: human, Caco-2, pH 6.2.
Description: Apparent permeability in human Caco2 cells at pH 6.2/7.4
Data set [10] is described as follows: in vivo. The settings on record: rat, iv, 2 mg/kg.
Description: Volume of distribution at steady state in rat at 2 mg/kg, iv
The nature of data set [11]: in vivo. The note with it: rat, po, 10 mg/kg.
The species named for another data set is Mus musculus. Put plainly: animal or person. The note with it: Ear, po, read-out: INH.
Data set [12] can be described thus: in vivo. The settings on record: rat, plasma, iv, 2 mg/kg.
Description: Clearance in rat plasma at 2 mg/kg, iv
A short description of data set [13]: in vivo. The note with it: rat, iv, 2 mg/kg. This is another data set of the same source.
Description: Half life in rat at 2 mg/kg, iv
Data set [14] is described as follows: in vivo. The settings on record: rat, po, 10 mg/kg. The source holds these as a separate data set.
Data set [15] in a line: Oral bioavailability in mouse. The class given is ADME, organism-based. The settings on record: in vivo.
Data set [16] in a line: Effective permeability across human Caco2 cells. The settings on record: Caco-2, read-out: Peff. The class given is ADME, cell-based.
Data set [17] is described as follows: Half life in mouse liver microsomes. The class given is ADME, Microsome. (Microsomes from liver hold many membrane-bound enzymes, among them those of drug oxidation.)
The nature of data set [18]: Clearance in mouse. The class given is ADME, organism-based. The note with it: in vivo.
Data set [19] concerns the target T1, Prostaglandin D2 receptor 2. The settings on record: cho-k1.
Description: as §1
The next data set concerns Liver microsomes. Put plainly: Metabolic stability in human liver microsomes. Format: ADME, Microsome.

Description for Eosinophil: Inhibition of eosinophil shape change in human whole blood after 10 mins by flow cytometric assay
Description for physchem: Aqueous solubility of the compound at pH 6.6

One may read the IC50 as the concentration at which inhibition is half-maximal. A high value points to weaker potency. Usually pKa stands for the negative logarithm of the acid dissociation constant. In turn, `COc1ccc2c(c1)c(-c1ccc(=O)n(Cc3ccccc3)n1)c(C)n2CC(=O)O` registered an IC50 in data set [1] of 104 nM. This compound showed a pKa in data set [2] of 4.07.
What is called Cmax is the maximum level reached in the sampled fluid or tissue. As usually defined, the fraction unbound is the share of the substance not bound to proteins or other matrix. A lower fraction unbound goes with extensive binding. Usually clearance stands for the rate of elimination divided by the concentration. Low values mean a low capacity for elimination, high ones a high capacity for elimination. What is called half-life is the time in which the quantity being followed falls by half. Read a low half-life as rapid decline. In general, bioavailability refers to the share of a dose that reaches the circulation, judged against a reference dose that is usually intravenous. In general, solubility refers to how much of the substance goes into solution per volume. Read a low solubility as a poorly soluble substance. `Cc1c(CC2=NN(Cc3ccc(F)cc3F)C(=O)CC2)c2cc(F)ccc2n1CC(=O)O` registered a Cmax in data set [3] of 1890 ng/mL. In addition, the values for the IC50 (in data set [1]; in the data set on Eosinophil) were 4 nM and 8 nM, respectively. In addition, in the data set “in vitro [4]”, the fraction unbound is below 0.02. The clearance in [5] amounted to 9 mL/min/kg. In addition, the half-life in [6] was 4 h. In [7], this compound gave a bioavailability of 41%. Moreover, in “physchem”, the solubility was 954 µg/mL (≈ 2150 µM). Further, the Vd in data set [8] stood at 1.12 L/kg.
In data set [1], `Cc1c(-c2ccc(=O)n(Cc3ccc(F)cc3F)n2)c2cc(F)ccc2n1CC(=O)O` returned an IC50 of 10 nM. The Papp in “in vitro [9]” turned out to be 2.1 ×10⁻⁶ cm/s.
As for `Cc1c(Cc2ccc(=O)n(Cc3ccc(C(C)(C)O)cc3)n2)c2cc(F)ccc2n1CC(=O)O`, the IC50 in data set [1] is 5 nM; in the data set with Eosinophil, 13 nM. In the data set “in vitro [4]”, this compound gave a fraction unbound below 0.02.
In “in vitro [4]”, `Cc1c(Cc2ccc(=O)n(Cc3ccncc3F)n2)c2cc(F)ccc2n1CC(=O)O` yielded a fraction unbound below 0.02.
On to `Cc1c(Cc2ccc(=O)n(Cc3cc(F)c(F)cc3F)n2)c2cc(F)ccc2n1CC(=O)O`, for which the results for the IC50 (in [1]; in the data set on Eosinophil) were 0.8 nM and 10 nM, respectively. In addition, the fraction unbound in the data set “in vitro [4]” was below 0.02.
For `Cc1c(Cc2ccc(=O)n(Cc3ccccc3)n2)c2cc(Cl)ccc2n1CC(=O)O` the same measures were 15 nM, 15 nM and below 0.02.
In the data set “in vitro [4]”, `Cc1c(Cc2ccc(=O)n(Cc3ccc(F)cc3F)n2)c2ccccc2n1CC(=O)O` registered a fraction unbound below 0.02.
With `Cc1c(Cc2ccc(=O)n(Cc3ccncc3)n2)c2cc(F)ccc2n1CC(=O)O`, the values for the IC50 (in [1]; in the data set on Eosinophil) were 12 nM and 22 nM, respectively. In the data set “in vitro [4]”, this compound returned an unbound share (fraction unbound) below 0.02.
As for `Cc1c(Cc2ccc(=O)n(Cc3ccc(C(F)(F)F)cc3)n2)c2cc(F)ccc2n1CC(=O)O`, the fraction unbound in “in vitro [4]” is below 0.02. In addition, the IC50 in the data set on Eosinophil turned out to be 55 nM.
The matching figures for `Cc1c(Cc2ccc(=O)n(Cc3ccc(C(O)(C(F)(F)F)C(F)(F)F)cc3)n2)c2cc(F)ccc2n1CC(=O)O`: below 0.02 and 57 nM.
The matching figures for `Cc1c(Cc2ccc(=O)n(Cc3ccccc3)n2)c2ccccc2n1CC(=O)O`: below 0.02 and 155 nM.
The matching figures for `Cc1c(Cc2ccc(=O)n(Cc3ccc(F)cc3F)n2)c2cc(F)cc(F)c2n1CC(=O)O`: below 0.02 and 180 nM.
In data set [1], `Cc1c(-c2ccc(=O)n(Cc3ccccc3)n2)c2cc(Cl)ccc2n1CC(=O)O` yielded an IC50 of 28 nM. The pKa in data set [2] came out at 4.03.
Compound `Cc1c(-c2ccc(=O)n(Cc3ccccc3)n2)c2cc(F)ccc2n1CC(=O)O` yielded an IC50 in data set [1] of 23 nM. For the same compound, the Papp in the data set “in vitro [9]” is 0.5 ×10⁻⁶ cm/s. This compound came in with a pKa in data set [2] of 4.02.
As to `Cc1ccc2c(c1)c(-c1ccc(=O)n(Cc3ccccc3)n1)c(C)n2CC(=O)O`, in data set [1], the IC50 is 34 nM. This compound had a pKa in data set [2] of 4.16.
For `Cc1c(-c2ccc(=O)n(Cc3ccccc3)n2)c2cc(S(C)(=O)=O)ccc2n1CC(=O)O` the same measures were 135 nM and 4.
The compound `Cc1c(-c2ccc(=O)n(Cc3ccccc3)n2)c2cccc(Br)c2n1CC(=O)O` gave a pKa in data set [2] of 3.98.
As for `Cc1c(-c2ccc(=O)n(Cc3ccccc3)n2)c2cc(Cl)cc(F)c2n1CC(=O)O`, the IC50 in data set [1] was 90 nM. This compound also displayed a pKa in data set [2] of 3.86.
The matching figures for `Cc1c(-c2ccc(=O)n(Cc3ccccc3)n2)c2cc(Cl)cc(Cl)c2n1CC(=O)O`: 1690 nM and 3.88.
In data set [1], `Cc1c(-c2ccc(=O)n(Cc3ccccc3)n2)c2cc(F)cc(F)c2n1CC(=O)O` showed an IC50 of 76 nM. The compound also showed a pKa in [2] of 3.85.
The matching figures for `Cc1c(-c2ccc(=O)n(Cc3ccccc3)n2)c2cc(F)cc(Cl)c2n1CC(=O)O`: 245 nM and 3.86.
Regarding `Cc1c(-c2ccc(=O)n(Cc3ccccc3)n2)c2cc(F)cc(S(C)(=O)=O)c2n1CC(=O)O`, in [2], the pKa is 3.83.
In turn, `Cc1c(-c2ccc(=O)n(Cc3ccccc3)n2)c2cc(S(C)(=O)=O)cc(F)c2n1CC(=O)O` yielded an IC50 in [1] of 934 nM. Also, the pKa in data set [2] was determined as 3.83.
As for `Cc1c(-c2nn(Cc3ccccc3)c(=O)c3ccccc23)c2cc(Cl)ccc2n1CC(=O)O`, the midpoint of inhibition in data set [1], the IC50, lay at 11 nM. That is a double-digit nanomolar value.
Same read-out and setting: for `Cc1c(Cc2nn(Cc3ccccc3)c(=O)c3ccccc23)c2cc(Cl)ccc2n1CC(=O)O` the value was 29 nM.
On to `Cc1c(-c2nn(Cc3ccccc3)c(=O)c3ccccc23)c2cc(F)ccc2n1CC(=O)O`, for which it took 11 nM to reach half-maximal inhibition in [1] (IC50).
Still for that read-out and setting: the result for `Cc1c(C2=NN(Cc3ccccc3)C(=O)C3CCCCC23)c2cc(F)ccc2n1CC(=O)O` (centres undefined) reads 109 nM.
As to `Cc1c(Cc2ccc(=O)n(Cc3ccccc3)n2)c2cc(F)ccc2n1CC(=O)O`, 9 nM corresponded to half-maximal inhibition in [1] (IC50). The Papp in “in vitro [9]” was 4.3 ×10⁻⁶ cm/s.
As to `Cc1c(CC2=NN(Cc3ccccc3)C(=O)CC2)c2cc(F)ccc2n1CC(=O)O`, the IC50 worked out at 16 nM in [1] and 4 nM with Eosinophil. This compound came in with a Vd in the data set “in vivo [10]” of 1.7 L/kg. The fraction unbound in “in vitro [4]” was below 0.02. For the same compound, in “in vivo [11]”, the bioavailability was 28%. Besides, the inhibition in vivo at 3 mg/kg in the data set listed under Mus musculus amounted to 34%. Moreover, the clearance in “in vivo [12]” is 13 mL/min/kg. This compound also had a half-life in the data set “in vivo [13]” of 4.3 h. Also, the highest level in “in vivo [14]” (Cmax) was 484 ng/mL.
For the compound `Cc1c(-c2nn(CCOc3ccc(Cl)cc3)c(=O)c3ccccc23)c2cc(Cl)ccc2n1CC(=O)O`, inhibition in [1] was half-maximal at 2 nM (IC50). The bioavailability in data set [15] is below 1%. For the same compound, in [16], the Papp was 0.2 ×10⁻⁶ cm/s. Moreover, in data set [17], the half-life was 0.183 h. The compound also registered a clearance in data set [18] above 90 mL/min/kg.
As for `Cc1c(-c2ccc(=O)n(Cc3ccc(F)cc3)n2)c2cc(F)ccc2n1CC(=O)O`, the IC50 in data set [19] came out at 20 nM. Further, in data set [15], the bioavailability came to 11%. In addition, the Stability entry in the data set on Liver microsomes was “Stable”. In data set [16], the Papp was 0.3 ×10⁻⁶ cm/s. In data set [17], this compound yielded a half-life above 0.5 h. For the same compound, the clearance in data set [18] came to 6.9 mL/min/kg.
For the compound `Cc1c(-c2nn(Cc3ccccc3)c(=O)c3ccccc23)c2ccccc2n1CC(=O)O`, the IC50 in [1] worked out at 16 nM. This lies in the double-digit nanomolar range.
On the same count and under the same terms, the result for `Cc1c(-c2nn(Cc3ccccc3)c(=O)c3ccccc23)c2ccccc2n1CC(N)=O` reads above 1000 nM; that for `Cc1c(-c2nn(Cc3ccccc3)c(=O)c3ccccc23)c2ccccc2n1CC(=O)N(C)C`, above 1000 nM; that for `Cc1c(-c2nn(Cc3ccccc3)c(=O)c3ccccc23)c2ccccc2n1CC(=O)N1CCCC1`, above 1000 nM.
On the same count and under the same terms, the result for `Cc1c(-c2nn(Cc3ccccc3)c(=O)c3ccccc23)c2ccccc2n1CC(=O)NS(C)(=O)=O` reads above 1000 nM; that for `Cc1c(-c2nn(Cc3ccccc3)c(=O)c3ccccc23)c2ccccc2n1CCO`, above 1000 nM.
In the case of `Cc1c(-c2nn(Cc3ccccc3)c(=O)c3ccccc23)c2ccccc2n1C(C)C(=O)O` (centres undefined), in [1], the IC50 was above 1000 nM.
On the same count and under the same terms, the result for `Cc1c(-c2nn(Cc3ccccc3)c(=O)c3ccccc23)c2ccccc2n1CCC(=O)O` reads above 1000 nM.
`Cc1c(-c2ccc(=O)n(Cc3ccccc3)n2)c2ccccc2n1CC(=O)O` returned an IC50 in [1] of 134 nM. The compound also yielded a pKa in data set [2] of 4.15.
The matching figures for `Cc1c(-c2ccc(=O)n(Cc3ccccc3)n2)c2cc(Br)ccc2n1CC(=O)O`: 16 nM and 4.03.
